In patent US11141410B2 (MERCK SHARP & DOHME CORP., priority 2015, dated 2021):
Read-outs that look alike come from different tables or passages of the source.

Key:
MRSA COL (MB5393) [1] = assay: TarO Inhibitor/β-Lactam Synergy Assay (growth, OD600); type: cell-based, Staphylococcus aureus; conditions: for MITC95 TarO inhibitor + 4 μg/mL IPM; Bacteria: SA_MB5393: in combination with 4 μg/mL imipenem (IPM); for MITC95 TarO inhibitor + 8 μg/mL DCX; Bacteria: SA_MB5393: in combination with 8 μg/mL dicloxacillin (DCX)
Experimental: The TarO inhibitor/β-lactam synergy assay was performed to measure the re-sensitization of methicillin-resistant Staphylococci bacteria (MB5393: MRSA COL) to β-lactam antibiotics by TarO inhibitors. MRSA COL is a hospital-acquired penicillinase-negative clinically isolated strain commonly used in Staphylococcus aureus studies and is fully resistant to the antimicrobial bioactivity of β-lactam antibiotics, including but not limited to imipenem and dicloxacillin. […] MRSA COL is fully refractory to β-lactam antibiotic effect at the current clinical breakpoint concentrations and as such MRSA COL is fully viable at these concentrations.
The β-lactam antibiotic concentration was fixed at the clinical breakpoint (imipenem 4 μg/ml or dicloxacillin 8 μg/ml) and the TarO inhibitors were titrated by 2 fold starting from the highest concentration of 200 μM with final DMSO concentration of 2% in the assay. 5×10^5 colony forming unit of MRSA COL in cation-adjusted Mueller Hinton broth (CAMHB) was then mixed and the assay plate was incubated for 20 hours at 37° C. without shaking. After 20 hours, the optical density at 600 nm (OD600) was read for all wells to determine relative growth of MRSA COL.

MRSA COL (MB5393) [2] = assay: as above; type: cell-based; conditions: Staphylococcus aureus, read-out: MITC95 TarO inhibitor alone, Bacteria: SA_MB5393
[3] = TarO inhibitor alone, >200 μM = 95% growth inhibition not achieved, 20 hours at 37° C.

Cc1cnc(F)c(CNC(=O)N2C(=O)O[C@H](c3cc(C(F)(F)F)cc(C(F)(F)F)c3)[C@@H]2C)c1 [Example 35, (4S,5R)-5-[3,5-bis(trifluoromethyl)phenyl]-N-[(2-fluoro-5-methylpyridin-3-yl)methyl]-4-methyl-2-oxo-1,3-oxazolidine-3-carboxamide]
MITC95 TarO inhibitor + 4 μg/mL IPM; Bacteria: SA_MB5393 (MRSA COL (MB5393) [1]): 0.10 µM | MITC95 TarO inhibitor + 8 μg/mL DCX; Bacteria: SA_MB5393 (MRSA COL (MB5393) [1]): 0.98 µM | IC95 (MRSA COL (MB5393) [2]; [3]): > 200 µM

C[C@H]1[C@@H](c2cc(F)cc(C(F)(F)F)c2)OC(=O)N1C(=O)NCc1ccccc1CN(C)C [Example 36, (4S,5R)-N-{2-[(dimethylamino)methyl]benzyl}-5-[3-fluoro-5-(trifluoromethyl)phenyl]-4-methyl-2-oxo-1,3-oxazolidine-3-carboxamide]
MITC95 TarO inhibitor + 4 μg/mL IPM; Bacteria: SA_MB5393 (MRSA COL (MB5393) [1]): 6.25 µM | MITC95 TarO inhibitor + 8 μg/mL DCX; Bacteria: SA_MB5393 (MRSA COL (MB5393) [1]): 25 µM | IC95 (MRSA COL (MB5393) [2]; [3]): > 200 µM

C[C@H]1[C@@H](c2cc(F)cc(C(F)(F)F)c2)OC(=O)N1C(=O)NCc1cccc2ncccc12 [Example 37, (4S,5R)-5-[3-fluoro-5-(trifluoromethyl)phenyl]-4-methyl-2-oxo-N-(quinolin-5-ylmethyl)-1,3-oxazolidine-3-carboxamide]
MITC95 TarO inhibitor + 4 μg/mL IPM; Bacteria: SA_MB5393 (MRSA COL (MB5393) [1]): 0.98 µM | MITC95 TarO inhibitor + 8 μg/mL DCX; Bacteria: SA_MB5393 (MRSA COL (MB5393) [1]): 2.73 µM | IC95 (MRSA COL (MB5393) [2]; [3]): > 200 µM

COc1cccnc1CNC(=O)N1C(=O)O[C@H](c2cc(C(F)(F)F)cc(C(F)(F)F)c2)[C@@H]1C [Example 38, (4S,5R)-5-[3,5-bis(trifluoromethyl)phenyl]-N-[(3-methoxypyridin-2-yl)methyl]-4-methyl-2-oxo-1,3-oxazolidine-3-carboxamide]
MITC95 TarO inhibitor + 4 μg/mL IPM; Bacteria: SA_MB5393 (MRSA COL (MB5393) [1]): 1.56 µM | MITC95 TarO inhibitor + 8 μg/mL DCX; Bacteria: SA_MB5393 (MRSA COL (MB5393) [1]): 25 µM | IC95 (MRSA COL (MB5393) [2]; [3]): > 200 µM

C[C@H]1[C@@H](c2cc(F)cc(C(F)(F)F)c2)OC(=O)N1C(=O)NCc1cccc2cn[nH]c12 [Example 39, (4S,5R)-5-[3-fluoro-5-(trifluoromethyl)phenyl]-N-(1H-indazol-7-ylmethyl)-4-methyl-2-oxo-1,3-oxazolidine-3-carboxamide]
MITC95 TarO inhibitor + 4 μg/mL IPM; Bacteria: SA_MB5393 (MRSA COL (MB5393) [1]): 0.78 µM | MITC95 TarO inhibitor + 8 μg/mL DCX; Bacteria: SA_MB5393 (MRSA COL (MB5393) [1]): 25 µM | IC95 (MRSA COL (MB5393) [2]; [3]): > 200 µM

C[C@H]1[C@@H](c2cc(F)cc(C(F)(F)F)c2)OC(=O)N1C(=O)NCc1cccc2c1C(=O)NC2 [Example 40]
MITC95 TarO inhibitor + 4 μg/mL IPM; Bacteria: SA_MB5393 (MRSA COL (MB5393) [1]): 18.75 µM | MITC95 TarO inhibitor + 8 μg/mL DCX; Bacteria: SA_MB5393 (MRSA COL (MB5393) [1]): 50 µM | IC95 (MRSA COL (MB5393) [2]; [3]): > 200 µM

Cc1cccnc1CCNC(=O)N1C(=O)O[C@H](c2cc(C(F)(F)F)cc(C(F)(F)F)c2)[C@@H]1C [Example 41, (4S,5R)-5-[3,5-bis(trifluoromethyl)phenyl]-4-methyl-N-[2-(3-methylpyridin-2-yl)ethyl]-2-oxo-1,3-oxazolidine-3-carboxamide]
MITC95 TarO inhibitor + 4 μg/mL IPM; Bacteria: SA_MB5393 (MRSA COL (MB5393) [1]): 1.56 µM | MITC95 TarO inhibitor + 8 μg/mL DCX; Bacteria: SA_MB5393 (MRSA COL (MB5393) [1]): 16.67 µM | IC95 (MRSA COL (MB5393) [2]; [3]): > 200 µM

C[C@H]1[C@@H](c2cc(C(F)(F)F)cc(C(F)(F)F)c2)OC(=O)N1C(=O)NCc1cnc2c(c1)CCC2 [Example 42, (4S,5R)-5-[3,5-bis(trifluoromethyl)phenyl]-N-(6,7-dihydro-5H-cyclopenta[b]pyridin-3-ylmethyl)-4-methyl-2-oxo-1,3-oxazolidine-3-carboxamide]
MITC95 TarO inhibitor + 4 μg/mL IPM; Bacteria: SA_MB5393 (MRSA COL (MB5393) [1]): 0.78 µM | MITC95 TarO inhibitor + 8 μg/mL DCX; Bacteria: SA_MB5393 (MRSA COL (MB5393) [1]): 12.50 µM | IC95 (MRSA COL (MB5393) [2]; [3]): > 200 µM

Cc1nc(C)c(CNC(=O)N2C(=O)O[C@H](c3cc(F)cc(C(F)(F)F)c3)[C@@H]2C)s1 [Example 43, (4S,5R)-N-[(2,4-dimethyl-1,3-thiazol-5-yl)methyl]-5-[3-fluoro-5-(trifluoromethyl)phenyl]-4-methyl-2-oxo-1,3-oxazolidine-3-carboxamide]
MITC95 TarO inhibitor + 4 μg/mL IPM; Bacteria: SA_MB5393 (MRSA COL (MB5393) [1]): 5.21 µM | MITC95 TarO inhibitor + 8 μg/mL DCX; Bacteria: SA_MB5393 (MRSA COL (MB5393) [1]): 42 µM | IC95 (MRSA COL (MB5393) [2]; [3]): > 200 µM

C[C@H]1[C@@H](c2cc(F)cc(C(F)(F)F)c2)OC(=O)N1C(=O)NCc1ccccc1S(C)(=O)=O [Example 44, (4S,5R)-5-[3-fluoro-5-(trifluoromethyl)phenyl]-4-methyl-N-[2-(methylsulfonyl)benzyl]-2-oxo-1,3-oxazolidine-3-carboxamide]
MITC95 TarO inhibitor + 4 μg/mL IPM; Bacteria: SA_MB5393 (MRSA COL (MB5393) [1]): 12.50 µM | MITC95 TarO inhibitor + 8 μg/mL DCX; Bacteria: SA_MB5393 (MRSA COL (MB5393) [1]): 25 µM | IC95 (MRSA COL (MB5393) [2]; [3]): > 200 µM

C[C@H]1[C@@H](c2cc(C(F)(F)F)cc(C(F)(F)F)c2)OC(=O)N1C(=O)NCc1cccnc1N1CCOCC1 [Example 45, (4S,5R)-5-[3,5-bis(trifluoromethyl)phenyl]-4-methyl-N-[(2-morpholin-4-ylpyridin-3-yl)methyl]-2-oxo-1,3-oxazolidine-3-carboxamide]
MITC95 TarO inhibitor + 4 μg/mL IPM; Bacteria: SA_MB5393 (MRSA COL (MB5393) [1]): 4.69 µM | MITC95 TarO inhibitor + 8 μg/mL DCX; Bacteria: SA_MB5393 (MRSA COL (MB5393) [1]): 25 µM | IC95 (MRSA COL (MB5393) [2]; [3]): > 200 µM

C[C@H]1[C@@H](c2cc(F)cc(C(F)(F)F)c2)OC(=O)N1C(=O)N(O)Cc1cccc2ccccc12 [Example 46, (4S,5R)-5-[3-fluoro-5-(trifluoromethyl)phenyl]-N-hydroxy-4-methyl-N-(naphthalen-1-ylmethyl)-2-oxo-1,3-oxazolidine-3-carboxamide]
MITC95 TarO inhibitor + 4 μg/mL IPM; Bacteria: SA_MB5393 (MRSA COL (MB5393) [1]): 6.25 µM | MITC95 TarO inhibitor + 8 μg/mL DCX; Bacteria: SA_MB5393 (MRSA COL (MB5393) [1]): 50 µM | IC95 (MRSA COL (MB5393) [2]; [3]): > 200 µM

C[C@H]1[C@@H](c2cc(F)cc(C(F)(F)F)c2)OC(=O)N1C(=O)NCc1cnc2sccn12 [Example 47, (4S,5R)-5-[3-fluoro-5-(trifluoromethyl)phenyl]-N-(imidazo[2,1-b][1,3]thiazol-5-ylmethyl)-4-methyl-2-oxo-1,3-oxazolidine-3-carboxamide]
MITC95 TarO inhibitor + 4 μg/mL IPM; Bacteria: SA_MB5393 (MRSA COL (MB5393) [1]): 62 µM | MITC95 TarO inhibitor + 8 μg/mL DCX; Bacteria: SA_MB5393 (MRSA COL (MB5393) [1]): 50 µM | IC95 (MRSA COL (MB5393) [2]; [3]): > 200 µM

C[C@H]1[C@@H](c2cc(F)cc(C(F)(F)F)c2)OC(=O)N1C(=O)NCc1cncc2ccccc12 [Example 48, (4S,5R)-5-[3-fluoro-5-(trifluoromethyl)phenyl]-N-(isoquinolin-4-ylmethyl)-4-methyl-2-oxo-1,3-oxazolidine-3-carboxamide]
MITC95 TarO inhibitor + 4 μg/mL IPM; Bacteria: SA_MB5393 (MRSA COL (MB5393) [1]): 0.13 µM | MITC95 TarO inhibitor + 8 μg/mL DCX; Bacteria: SA_MB5393 (MRSA COL (MB5393) [1]): 0.39 µM | IC95 (MRSA COL (MB5393) [2]; [3]): > 200 µM

C[C@H]1[C@@H](c2cc(C(F)(F)F)cc(C(F)(F)F)c2)OC(=O)N1C(=O)NCc1cccc2c1OCCO2 [Example 49, (4S,5R)-5-[3,5-bis(trifluoromethyl)phenyl]-N-(2,3-dihydro-1,4-benzodioxin-5-ylmethyl)-4-methyl-2-oxo-1,3-oxazolidine-3-carboxamide]
MITC95 TarO inhibitor + 4 μg/mL IPM; Bacteria: SA_MB5393 (MRSA COL (MB5393) [1]): 0.02 µM | MITC95 TarO inhibitor + 8 μg/mL DCX; Bacteria: SA_MB5393 (MRSA COL (MB5393) [1]): 0.13 µM | IC95 (MRSA COL (MB5393) [2]; [3]): > 200 µM

O=C(NCc1cncc2ccccc12)N1C(=O)O[C@H](c2cc(C(F)(F)F)cc(C(F)(F)F)c2)[C@@H]1CO [Example 50, (4S,5R)-5-(3,5-bis(trifluoromethyl)phenyl)-4-(hydroxymethyl)-N-(isoquinolin-4-ylmethyl)-2-oxooxazolidine-3-carboxamide]
MITC95 TarO inhibitor + 4 μg/mL IPM; Bacteria: SA_MB5393 (MRSA COL (MB5393) [1]): 0.22 µM | MITC95 TarO inhibitor + 8 μg/mL DCX; Bacteria: SA_MB5393 (MRSA COL (MB5393) [1]): 0.64 µM | IC95 (MRSA COL (MB5393) [2]; 20 h): > 200 µM

COc1cc([C@H]2OC(=O)N(C(=O)NCc3cncc4cccnc34)[C@H]2CO)cc(C(F)(F)F)c1 [Example 51, (4S,5R)-4-(hydroxymethyl)-5-[3-methoxy-5-(trifluoromethyl)phenyl]-N-(1,6-naphthyridin-8-yl-methyl)-2-oxo-1,3-oxazolidine-3-carboxamide]
MITC95 TarO inhibitor + 4 μg/mL IPM; Bacteria: SA_MB5393 (MRSA COL (MB5393) [1]): 1.56 µM | MITC95 TarO inhibitor + 8 μg/mL DCX; Bacteria: SA_MB5393 (MRSA COL (MB5393) [1]): 8.33 µM | IC95 (MRSA COL (MB5393) [2]; [3]): > 200 µM

COc1cccc(CNC(=O)N2C(=O)O[C@H](c3cc(C(F)(F)F)cc(C(F)(F)F)c3)[C@@H]2CO)c1OC [Example 52, (4S,5R)-5-[3,5-bis(trifluoromethyl)phenyl]-N-(2,3-dimethoxybenzyl)-4-(hydroxymethyl)-2-oxo-1,3-oxazolidine-3-carboxamide]
MITC95 TarO inhibitor + 4 μg/mL IPM; Bacteria: SA_MB5393 (MRSA COL (MB5393) [1]): 0.03 µM | MITC95 TarO inhibitor + 8 μg/mL DCX; Bacteria: SA_MB5393 (MRSA COL (MB5393) [1]): 0.06 µM | IC95 (MRSA COL (MB5393) [2]; [3]): > 200 µM

O=C(NCc1cncc2cccnc12)N1C(=O)O[C@H](c2cc(C(F)(F)F)cc(C(F)(F)F)c2)[C@@H]1CO [Example 53, (4S,5R)-5-[3,5-bis(trifluoromethyl)phenyl]-4-(hydroxymethyl)-N-(1,6-naph-thyridin-8-yl-methyl)-2-oxo-1,3-oxazolidine-3-carboxamide]
MITC95 TarO inhibitor + 4 μg/mL IPM; Bacteria: SA_MB5393 (MRSA COL (MB5393) [1]): 0.39 µM | MITC95 TarO inhibitor + 8 μg/mL DCX; Bacteria: SA_MB5393 (MRSA COL (MB5393) [1]): 1.37 µM | IC95 (MRSA COL (MB5393) [2]; [3]): > 200 µM
